# Laboratory results from patent US20160338955A1, “ANTIGEN-SPECIFIC IMMUNOTHERAPY USING TOLERIZING LIPOSOMES” (PLS-Design GmbH, priority 2015, published 2016).
# Where two headings read alike, the source gives them in different places.
# Experiments:
# murine CD22 = target: T1, murine CD22 (Mus musculus, UniProt P35329); settings: cited from earlier work
# T1 sequence (P35329 22-868): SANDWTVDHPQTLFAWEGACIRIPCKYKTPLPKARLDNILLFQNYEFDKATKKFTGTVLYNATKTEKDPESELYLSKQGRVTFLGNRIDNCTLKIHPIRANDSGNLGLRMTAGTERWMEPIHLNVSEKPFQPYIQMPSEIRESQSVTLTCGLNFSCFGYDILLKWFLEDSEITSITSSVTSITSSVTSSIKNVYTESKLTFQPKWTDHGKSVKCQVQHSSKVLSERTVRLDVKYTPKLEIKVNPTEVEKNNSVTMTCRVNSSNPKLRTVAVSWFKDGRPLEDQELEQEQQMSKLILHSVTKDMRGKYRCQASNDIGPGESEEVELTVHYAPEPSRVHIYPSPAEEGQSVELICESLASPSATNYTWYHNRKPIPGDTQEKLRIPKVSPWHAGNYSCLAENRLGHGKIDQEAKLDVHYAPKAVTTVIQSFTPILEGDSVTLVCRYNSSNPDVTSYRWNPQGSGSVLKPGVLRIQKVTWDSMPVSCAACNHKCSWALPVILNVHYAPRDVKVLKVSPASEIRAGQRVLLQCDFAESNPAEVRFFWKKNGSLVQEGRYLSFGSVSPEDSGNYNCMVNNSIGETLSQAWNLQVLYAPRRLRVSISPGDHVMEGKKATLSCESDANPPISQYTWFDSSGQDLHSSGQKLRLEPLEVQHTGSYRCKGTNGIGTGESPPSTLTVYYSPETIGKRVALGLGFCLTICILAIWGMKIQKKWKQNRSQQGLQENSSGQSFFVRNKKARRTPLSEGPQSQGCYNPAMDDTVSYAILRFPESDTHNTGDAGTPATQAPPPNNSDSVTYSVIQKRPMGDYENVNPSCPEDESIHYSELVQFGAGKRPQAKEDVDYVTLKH
# [1] = tested on: human polymorphonuclear leukocyte (PMN) trans-endothelial migration; settings: equipotent to resolvin D1; read-out: EC50 of reduction of PMN trans-endothelial migration; cited from earlier work
# leukocyte infiltration = settings: 100 ng dose; cited from earlier work
# [2] = In vitro release of ATP from PLGA-PEG-PLGA hydrogels; type: physicochemical
# Experimental: An aliquot of 20 μl of a 10 mM solution of ATP is combined with 160 μl of 25% gel solution of Example 4.1 and 20 μl of 10×PBS (final concentration of ATP is 1 mM). The mixture is incubated for 2 minutes at 37° C. to induce gelling and overlayed with 1 ml of 1×PBS. At frequent timepoints the supernatant is removed by pipetting and stored at 4° C. The removed supernatant is replaced by fresh 1 ml of 1×PBS. After 48 hours the samples are measured spectrometrically at 260 nm and the amount of released ATP is calculated as percentage of a reference sample containing a concentration of ATP equaling 100% release.
# P2X7 = target: T2, P2X7 (Homo sapiens, UniProt Q99572); settings: read-out: EC50 for activation of P2X7; cited from earlier work
# T2 sequence (Q99572 1-595): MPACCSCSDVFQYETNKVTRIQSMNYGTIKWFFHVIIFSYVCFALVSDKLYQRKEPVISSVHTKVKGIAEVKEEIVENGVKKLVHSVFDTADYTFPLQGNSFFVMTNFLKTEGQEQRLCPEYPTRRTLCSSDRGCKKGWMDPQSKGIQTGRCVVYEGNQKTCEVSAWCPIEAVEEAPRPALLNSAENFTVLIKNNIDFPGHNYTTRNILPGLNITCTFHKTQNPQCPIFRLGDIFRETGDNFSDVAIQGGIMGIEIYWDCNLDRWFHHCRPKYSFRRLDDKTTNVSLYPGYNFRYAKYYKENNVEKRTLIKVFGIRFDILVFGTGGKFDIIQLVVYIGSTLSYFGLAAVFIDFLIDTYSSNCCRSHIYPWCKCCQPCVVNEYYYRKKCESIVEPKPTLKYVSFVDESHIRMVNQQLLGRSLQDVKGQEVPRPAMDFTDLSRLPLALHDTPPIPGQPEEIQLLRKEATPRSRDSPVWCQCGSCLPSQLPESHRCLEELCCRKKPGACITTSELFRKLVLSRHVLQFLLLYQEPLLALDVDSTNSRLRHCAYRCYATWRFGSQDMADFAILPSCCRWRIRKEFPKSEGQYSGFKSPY
# P2Y2 = P2Y2 (Homo sapiens, UniProt P41231); settings: read-out: EC50 for activation of P2Y2; cited from earlier work
# Sequence of P2Y2 (P41231 whole entry, species assumed): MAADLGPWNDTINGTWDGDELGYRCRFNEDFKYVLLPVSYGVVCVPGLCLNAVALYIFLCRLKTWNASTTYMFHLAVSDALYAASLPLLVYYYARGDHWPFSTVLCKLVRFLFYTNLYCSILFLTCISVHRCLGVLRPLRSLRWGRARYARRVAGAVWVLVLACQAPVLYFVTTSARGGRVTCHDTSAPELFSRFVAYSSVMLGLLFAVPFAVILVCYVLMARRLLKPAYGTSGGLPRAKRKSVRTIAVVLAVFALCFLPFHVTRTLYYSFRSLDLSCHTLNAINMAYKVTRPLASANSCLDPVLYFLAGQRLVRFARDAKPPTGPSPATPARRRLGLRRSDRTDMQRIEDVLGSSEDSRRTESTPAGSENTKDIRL
# phagocytes = settings: cited from earlier work; for maximal migration of phagocytes (increase): at about 100 nM; for concentration effecting maximal migration of phagocytes: transwell migration assay
# [3] = Release of DexP from PLGA-PEG-PLGA hydrogels; type: physicochemical
# Experimental: The biodegradable PLGA-PEG-PLGA triblock polymer used in this example has a PLG/PEG weight ratio of 2.3 (70/30), and a lactide/glycolide molar ratio of approx. 15/1. Synthesis of the triblock copolymer is performed as described in Example 2.1. A 20 mM stock solution of DexP in PBS (10.3 mg/ml; MW 516.4; Sigma-Aldrich) is diluted 1:40 in PBS (final concentration: 0.5 mM), and 20 μl of the diluted stock solution is combined with 160 μl of 25% gel solution and 20 μl of 10×PBS (final concentration of DexP: 0.05 mM).
# The mixture of 5.2.1 is incubated for 2 minutes at 37° C. to induce gelling and overlayed with 200 μl of 1×PBS. At frequent time points the supernatant is removed by pipetting and stored at 4° C. The removed supernatant is replaced by fresh 200 μl of 1×PBS. Controls of the same concentration of DexP in 1×PBS without gel are incubated and sampled in parallel.
# Released DexP is determined with a spectrophotometric method (Singh and Verma, 2008). The method involves oxidation of the corticosteroid by iron (III) and subsequent complexation of iron (II) with potassium hexacynoferate (III), forming a bluish green coloured complex with maximum absorbance at 780 nm (Beer's law range: 10-50 μg/ml; molar absorptivity (M^−1cm^−1): for DexP 0.55×10^4).
# [4] = cited from earlier work
# rheumatoid arthritis = settings: 2 μg/day for 3 months, cited from earlier work
# [5] = cited from earlier work; remark: listed apart in the source
# [6] = rodents; cited from earlier work
# calcium metabolism = settings: compared to 1,25-(OH)2D3; cited from earlier work
# [7] = cited from earlier work; remark: listed apart in the source
# [8] = cited from earlier work; remark: listed apart in the source
# [9] = rats; cited from earlier work
# [10] = in vivo; cited from earlier work
# [11] = cited from earlier work; remark: listed apart in the source
# [12] = tested on: TNFR1-mediated activation of NF-κB; settings: high concentrations; cited from earlier work
# type 1 diabetes = settings: cited from earlier work
compound,measurement,setting,value
9-biphenylacetyl-N-glycolylneuraminic acid-α2-6-galactose-β1-4-N-acetylglucosamine-β-ethylamine [6′-^BPANeuGc],"affinity for murine CD22, fold higher than natural ligand NeuGcα2-6Galβ1-4GlcNAc-β-ethylamine",murine CD22,200 fold
CC/C=C\C[C@@H](O)/C=C/C=C\C=C\C=C\[C@@H](O)[C@@H](O)C/C=C\CCC(=O)O [17(R)-Resolvin D1],EC50,[1],~30 nM
same,maximal inhibition of leukocyte infiltration,leukocyte infiltration,~35%
Nc1ncnc2c1ncn2[C@@H]1O[C@H](COP(=O)(O)OP(=O)(O)OP(=O)(O)O)[C@@H](O)[C@H]1O [ATP],hydrogel-embedded ATP released,[2]; after 48 hours,approx. 75%
same,further hydrogel-embedded ATP released,"[2]; another, within the next 20 hours",10%
same,hydrogel-embedded ATP released,[2]; within the first 5 hours (initial burst),approx. 50%
same,EC50,P2X7,> 100000 nM
same,EC50,P2Y2,< 1000 nM
same,maximal migration of phagocytes (increase),phagocytes,threefold increase
same,concentration effecting maximal migration of phagocytes,phagocytes,about 100 nM
"C[C@@H]1C[C@H]2[C@@H]3CCC4=CC(=O)C=C[C@]4(C)[C@@]3(F)[C@@H](O)C[C@]2(C)[C@@]1(O)C(=O)COP(=O)(O)O [DexP, dexamethasone sodium phosphate]",hydrogel-embedded DexP released,[3]; after 2 days,80-90%
same,hydrogel-embedded DexP released,[3]; within the first 6 hours,30-50%
same,solubility in PBS,[4]; PBS,at least 25 mg/ml
same,"solubility in 10 mM HEPES and 135 mM NaCl, pH 6.7",[4]; pH 6.7,at least 50 mg/ml
same,solubility in water,"[4]; water, product information",50 mg/mL
O=c1ccn([C@@H]2O[C@H](COP(=O)(O)OP(=O)(O)OP(=O)(O)O)[C@@H](O)[C@H]2O)c(=O)[nH]1 [UTP],maximal migration of phagocytes (increase),phagocytes,threefold increase
same,concentration effecting maximal migration of phagocytes,phagocytes,about 100 nM
C=C1/C(=C\C=C2/CCC[C@]3(C)[C@@H]([C@H](C)CCCC(C)C)CC[C@@H]23)C[C@@H](O)C[C@@H]1O [alfacalcidiol],patients with improvement of disease activity,rheumatoid arthritis; on methotrexate,89%
same,patients going into remission,rheumatoid arthritis,45%
"C=C1CC[C@H](O)C/C1=C/C=C1\CCC[C@]2(C)[C@@H]([C@H](C)CCCC(C)(C)O)CC[C@@H]12 [calcidiol, 25-hydroxyvitamin D3]",plasma calcidiol concentration producing vitamin D toxicity,[5]; Jones (2008),above 0.75 μM
same,calcidiol level at which toxicity occurs,[5]; Shephard and DeLuca (1980),≥ 500 ng/mL
same,plasma calcidiol concentration tolerated with normocalcemia,[6],250 to 1000 nM
C=C1/C(=C\C=C2/CCC[C@]3(C)[C@@H]([C@H](C)/C=C/[C@@H](O)C4CC4)CC[C@@H]23)C[C@@H](O)C[C@@H]1O [calcipotriol],"effect on calcium metabolism, times less than 1,25-(OH)2D3 (calcitriol)",calcium metabolism,100-200 times
same,"rate of clearance, times higher than for 1,25-(OH)2D3","[7]; compared to 1,25-(OH)2D3 / calcitriol",approximately 140 times
same,detectable in serum by HPLC up to,[7]; i.v. injection of 10 μg/kg in rats,up to 5 min
same,detectable in serum by HPLC up to,[7]; i.v. injection of 50 μg/kg in rats,up to 10 min
same,applied dose absorbed systemically,[8]; applied to normal skin,5%
same,applied dose absorbed systemically,[8]; ointment applied topically to psoriasis plaques,approximately 6%
same,single s.c. dose up to which no death occurred,[9],≤ 540 μg/kg body weight
C[C@]12CCC(=O)C=C1CC[C@@H]1[C@@H]2C(=O)C[C@@]2(C)[C@H]1CC[C@]2(O)C(=O)CO [cortisone],glucocorticoid potency (in words),[10],rather low potency
C[C@@H]1C[C@H]2[C@@H]3CCC4=CC(=O)C=C[C@]4(C)[C@@]3(F)[C@@H](O)C[C@]2(C)[C@@]1(O)C(=O)CO [dexamethasone],plasma concentration of Dex,[11]; after 6 weeks (day 42),1 nM
same,plasma concentration of Dex,[11]; around day 7 after i.v. 200 mg/day on three alternating days,100 to 1000 nM
C[C@]12CCC(=O)C=C1CC[C@@H]1[C@@H]2[C@@H](O)C[C@@]2(C)[C@H]1CC[C@]2(O)C(=O)CO [hydrocortisone],glucocorticoid potency (in words),[10],rather low potency
C[C@]12C=CC(=O)C=C1CC[C@@H]1[C@@H]2[C@@H](O)C[C@@]2(C)[C@H]1CC[C@]2(O)C(=O)CO [prednisolone],glucocorticoid potency (in words),[10],intermediate potency
O=C([O-])c1ccccc1O.[Na+] [sodium salicylate],concentration inhibiting TNFR1-mediated activation of NF-κB,[12],10 to 20 mM
C[C@]12C=CC(=O)C=C1CC[C@H]1[C@@H]3C[C@@H](O)[C@](O)(C(=O)CO)[C@@]3(C)C[C@H](O)[C@@]12F [triamcinolone],glucocorticoid potency (in words),[10],intermediate potency
vitamin D,relative risk of type 1 diabetes,type 1 diabetes; doses of exactly 50 μg/day,0.22
same,relative risk of type 1 diabetes,"type 1 diabetes; doses of over 50 μg/day (2000 IU/d) during infancy, subsequent 30 years",0.14
same,odds ratio of risk for T1D by age 15,type 1 diabetes; supplemented vs unsupplemented children,0.67
